In brackets after ≈: the same amount, converted by molar mass.
Columns and labels:
[1] = system: L6 cells; assay: In vitro cytotoxicity (LD50), Alamar Blue; format: cell-based; settings: Rattus norvegicus, L6, read-out: L6 IC50
Experimental: L6 cells were seeded at 4×10^4 cells per well in a 96-well microtiter plate with each well containing 100 μL of RPMI 1640 medium, supplemented with 1% L-glutamine (200 mM), and 10% fetal bovine serum. Serial drug dilutions of Example 7 and Example 27 with seven 3-fold dilution steps, covering a range from 90 to 0.12 μg/mL, were prepared. After 72 h of incubation, the plates were inspected under an inverted microscope to ensure growth of the controls and sterile conditions. Alamar Blue (10 μL, 12.5 mg of resazurin dissolved in 100 mL of double-distilled water) was then added to each well, and the plates were incubated for another 2 hours. Plates were read with a microplate fluorometer using an excitation wavelength of 536 nm and an emission wavelength of 588 nm. Data were analyzed using microplate reader software. Podophyllotoxin was used as a standard (L6 IC50=0.04 μg/mL).
Next, the inventors wanted to determine if there is a therapeutic window for Example 7 and Example 27 in the treatment of P. falciparum. A therapeutic window for P. falciparum treatment is defined as a 10-fold differential between the in vitro cytotoxicity (LD50) within a mammalian cell line and the antimalarial IC50 (LD50/IC50) as defined by the MMV. Using the rat skeletal muscle L6 mammalian cell line, dose-response curves for Example 7 and Example 27 were performed and the LD50 determined.

[2] = system: A375 Human melanoma tumor cells; assay: Human tumor xenograft study; format: in vivo; settings: A375 xenograft in female mice; orally, daily for 21 days; after 25 days
Experimental: Female mice were inoculated subcutaneously in the right flank with 0.1 ml of a 50% RPMI/50% Matrigel™ (BD Biosciences, Bedford, Mass.) mixture containing a suspension of A375 Human melanoma tumor cells (approximately 5×10^6 cells/mouse).
When tumor reached approximately 130 mg, mice were randomized into treatment groups. Body weights were recorded when the mice were randomized and were taken twice per week (on Study Days 3 and 7 for each cycle) thereafter in conjunction with tumor measurements. Treatment began on the day of randomization. Example 10 was delivered orally in a vehicle consisting of 5% DMA, 10% propylene glycol, 20% PEG 400, and 65% sterile water. Example 10 was administered daily for 21 days.

[3] = system: Tumor cell lines (H292, HCT116, A375, HCC1569, A498, N87, UACC1093, and UACC647); assay: Single agent tumor cell viability (ATP luminescence, 72 hours); format: cell-based; settings: cell lines tested; 72 hours exposure; FIGS. 1A, 1B
Experimental: (§1) Tumor cell lines (H292, HCT116, A375, HCC1569, A498, N87, UACC1093, and UACC647) were cultured in RPMI 1640 supplemented with 5% fetal bovine serum and housed in a 5% CO2 Incubator at 37° C.
(§2) For single agent IC50 determination, cells were plated on a 96 well microplate and allowed 24 hours to adhere. Drugs were administered to the drug plate by the following: compound stock solutions (10 mM) were added to a drug plate where a 1:10 dilution was performed. Following the dilutions, 2 μl of test compound was transferred to the corresponding wells in the cell-containing 96-well plate with 198 μl of growth media. The compounds were tested over a range of 0.1 pM-100 μM for 72 hours. Following 72 hours of continuous exposure cell viability was determined by measuring the ATP activity using a commercially available cell viability assay kit. Luminescence intensity was used to relative drug activity compared to control wells and used to graphically determine the IC50.

[4] = system: PLX-4032 resistant melanoma cell lines UACC1093 and UACC647; assay: Combination interaction tumor cell viability (ATP luminescence, 72 hours); format: cell-based
Experimental: as §1
as §2, with “combination interaction experiments,” for “single agent IC50 determination,”, “(20 mM) or combination agent stock solutions (20” for “(10”, “each VT-062 and standard agent” for “test compound”, “196” for “198”, “compound and combination agent was concurrently” for “compounds were”, “IC50 of combination.” for “IC50.”

[5] = system: UACC-1940 melanoma cell line; assay: Cell viability (IC50) screen, CellTiter Glo, UACC-1940; format: cell-based; settings: Homo sapiens; UACC-1940 cell viability, CellTiter Glo; read-out: IC50
Experimental: (§3) U2OS cells were seeded at 500 cells per well in 5A McCoy's with 10% FBS in 96-well clear bottom, black-walled tissue culture plates. All melanoma cell lines (A375, UACC-91, UACC-257, UACC-502, UACC-903, UACC-1308, UACC-1940, UACC-2534, and UACC-3291) were seeded at 5,000 cells per well in RPMI 1640 with 10% FBS in 96-well clear bottom, black-walled tissue culture plates. After 24 hour incubation, cells were treated with VATG compounds in triplicate with a 10-point half log dose response from […] for 24 and 48 hours. Medium was removed and 2× CellTiter Glo (Promega, G7571) reagent mixed 1:1 with Opti-MEM (Invitrogen, 31985062) was added at 100 μL per well and incubated at room temperature for 15 minutes while rocking. 75 μL per well was moved to a white-walled 96-well plate and luminescence quantified using the 96 LUM program on an EnVision plate reader (PerkinElmer) and exported for analysis. All triplicate data points were averaged and luminescent readings for each treatment were normalized to vehicle control for change in viability. Dose response curves were input into SigmaPlot for IC50 calculations (Systat Software Inc).

[6] = system: UACC-903 melanoma cell line; assay: Cell viability (IC50) screen, CellTiter Glo, UACC-903; format: cell-based; settings: Homo sapiens; UACC-903 cell viability, CellTiter Glo; read-out: IC50
Experimental: as §3

[7] = system: UACC-257 melanoma cell line; assay: Cell viability (IC50) screen, CellTiter Glo, UACC-257; format: cell-based; settings: Homo sapiens; UACC-257 cell viability, CellTiter Glo; read-out: IC50
Experimental: as §3

[8] = system: A375 melanoma cell line; assay: Cell viability (IC50) screen, CellTiter Glo, A375; format: cell-based; settings: Homo sapiens, A-375; A375 cell viability, CellTiter Glo, 48 hours; read-out: IC50
Experimental: as §3

[9] = system: UACC-3291 melanoma cell line; assay: Cell viability (IC50) screen, CellTiter Glo, UACC-3291; format: cell-based; settings: Homo sapiens; UACC-3291 cell viability, CellTiter Glo; read-out: IC50
Experimental: as §3

[10] = system: A375 cells; format: cell-based, human; settings: A375 soft agar
Source text: After three weeks of treatment, cells were fixed and stained in 1% paraformaldehyde in 1×PBS containing 0.005% crystal violet overnight. Cells were destained with multiple washes of 1×PBS to remove background staining. Plates were scanned and images quantified using Nikon NIS Elements software. To quantify, each image was sharpened and an ROI of equal size drawn around each well. Intensity thresholds were set to include all pixels equal to or greater than the intensity of the mean background fluorescence. Objects within the threshold of each ROI were quantified using an automated object count function and exported for analysis. Object number was quantified to denote total colony formation. […] Additivity was established when the expected viability determined by the Bliss independence model was equal to the actual viability. This model was chosen since the effects of both compounds are mutually non-exclusive and follow first order Michaelis-Menten kinetics.
To determine if the effects of each combination were more than, less than, or equal to additive, predictions for additivity were made using the Bliss Independence (Table 7), as disclosed in Yan H, Zhang B, Li S, Zhao Q. A formal model for analyzing drug combination effects and its application in TNF-alpha-induced NFkappaB pathway. BMC Syst. […] Drug combination studies and their synergy quantification using the Chou-Talalay method.

[11] = system: UACC-91 melanoma cell line; assay: Cell viability (IC50) screen, CellTiter Glo, UACC-91; format: cell-based; settings: Homo sapiens; UACC-91 cell viability, CellTiter Glo; read-out: IC50
Experimental: as §3

[12] = system: metastatic melanoma with BRAF V600E mutation; settings: metastatic melanoma patients with the mutation; in one study; cited from earlier work
[13] = system: UACC-1308 melanoma cell line; assay: Cell viability (IC50) screen, CellTiter Glo, UACC-1308; format: cell-based; settings: Homo sapiens; UACC-1308 cell viability, CellTiter Glo; read-out: IC50
Experimental: as §3

[14] = system: phospho-ERK1/2 and LC3-II in A375 cells; assay: Western blot of A375 cells treated with PLX-4032 with and without autophagy inhibitors; format: cell-based, human
Experimental: For Western blotting, U2OS cells were seeded in 10 cm plates in 5A McCoy's with 10% FBS at 1×10^6 cells per plate. All melanoma lines were seeded in 10 cm plates in RPMI 1640 with 10% FBS at 1×10^6 cells per plate. After 24 hours, cells were treated with CQ, QN, Example 27, or Example 7 in a dose response of 0.3 μM, 1 μM, 3 μM, 10 μM, and 30 μM for three hours. A375 were treated with PLX-4032 (Selleck Chemicals, S1267) at 10 nM, 100 nM, and 1 μM for three hours with and without CQ, QN, Example 7, and Example 27 at 3 μM and 30 μM. After treatment, cells were lysed [10 mM KPO4, 1 mM EDTA, 10 mM MgCl2, 5 mM EGTA, 50 mM bis-glycerophosphate, 0.5% NP40, 0.1% Brij35, 0.1% sodium deoxycholate, 1 mM NaVO4, 5 mM NaF, 2 mM DTT, and complete protease inhibitors (Sigma, P8340-5 mL)] and 50 μg of protein was resolved by SDS-PAGE. Proteins were transferred to PVDF membranes and probed with primary antibodies [LC3 (Sigma, L7543-200UL), anti-α-tubulin (Sigma, T6199), cathepsin B (Santa Cruz, sc-13985)] for 16 hours at 4° C. followed by a secondary antibody [HRP-linked rabbit or mouse IgG (GE Healthcare, NA934 or NA931) or Odyssey IRDye 680CW Goat anti-rabbit IgG (LI-COR, 926-32221) or IRDye 800CW Goat anti-mouse IgG (LI-COR, 926-32210)] for 1 hour at room temperature. Proteins were detected with enhanced chemiluminescence or using the Odyssey machine and quantified (FIGS. 12, 15, 16, 7 and 11).
Since the melanoma cell lines are capable of undergoing autophagy and sensitive to autophagy inhibition, the inventors questioned whether autophagy inhibitors could improve the efficacy of, or sensitize melanoma cells against cytotoxic and chemotherapeutic drugs for advanced metastatic melanoma. In one example, PLX-4032 drug “vemurafenib” (marketed as ZELBORAF®) is a B-Raf enzyme inhibitor developed by Plexxikon and Genentech for the treatment of late-stage melanoma. The name “vemurafenib” comes from V600E mutated BRAF inhibition. PLX-4032, selectively targets the V600E mutant BRAF and it is unknown how this drug may affect autophagic flux. To determine the effects of the drug on autophagic flux, the present inventors performed experiments to determine whether PLX-4032 induces autophagy, as has been observed with other targeted agents. In some embodiments, the accumulation of LC3-II in response to lysosome inhibition was measured by quantitative Western blotting, as described above. A375 cells were treated with PLX-4032 (10 nM, 100 nM, and 1 μM) for three hours in the presence or absence of CQ.

[15] = system: UACC-502 melanoma cell line; assay: Cell viability (IC50) screen, CellTiter Glo, UACC-502; format: cell-based; settings: Homo sapiens; UACC-502 cell viability, CellTiter Glo; read-out: IC50
Experimental: as §3

[16] = system: UACC-2534 melanoma cell line; assay: Cell viability (IC50) screen, CellTiter Glo, UACC-2534; format: cell-based; settings: Homo sapiens; UACC-2534 cell viability, CellTiter Glo; read-out: IC50
Experimental: as §3

COc1cc([C@@H]2c3cc4c(cc3[C@H](O)[C@H]3COC(=O)[C@H]23)OCO4)cc(OC)c1OC [Podophyllotoxin]
IC50 [1]: 0.04 µg/mL (≈ 0.0965 µM)

COc1ccc2nc3cc(Cl)ccc3c(NCCCCN(C)CC3CC3)c2c1 [Example 10, N^1-(6-Chloro-2-methoxyacridin-9-yl)-N^4-(cyclopropylmethyl)-N^4-methylbutane-1,4-diamine]
tumor growth inhibition [2]: greater than 50% | tumor cell growth inhibition [3]: more than 75% | increase in tumor growth inhibition in combination than Example 10 alone ([4]; in combination with PLX-4032, FIGS. 4A, 4C): 2.6-3.25% | increase in tumor growth inhibition in combination than Example 10 alone ([4]; in combination with Temozolomide, FIGS. 4B, 4D): 7-30%

CCCS(=O)(=O)Nc1ccc(F)c(C(=O)c2c[nH]c3ncc(-c4ccc(Cl)cc4)cc23)c1F [PLX-4032, N-[3-[5-(4-chlorophenyl)-1H-pyrrolo[2,3-b]pyridine-3-carbonyl]-2,4-difluorophenyl]propane-1-sulfonamide, reference compound]
IC50 [5]: 3.3 µM | IC50 [6]: 69 µM | IC50 [7]: 4 µM | IC50 [8]: 1 µM | IC50 [9]: 1.5 µM | Relative Growth Inhibition Compound B ([10]; single compound at IC10): 0.19 | IC10 concentration ([10]; treated every other day for three weeks, single agent): 0.0013 µM | IC50 [11]: 0.6 µM | response rate [12]: 70% | IC50 [13]: 0.6 µM | phosphorylation of ERK1/2 (oncogenic BRAF signaling) ([14]; 10 nM, 100 nM, 1 μM for three hours): reduced phosphorylation | autophagy / basal autophagic flux (LC3-II) ([14]; three hours, in the presence or absence of lysosome inhibitors): not significantly altered | IC50 [15]: 4.2 µM | IC50 [16]: 19.3 µM
